Experimental data published in ChEMBL document CHEMBL1649456 (Antimicrob Agents Chemother, 2009).
In brackets after ≈: the same amount, converted by molar mass.

Tests used:
Coxiella burnetii [1] = assay: Antimicrobial activity against compound-intermediate susceptible Coxiella burnetii isolate CP1 obtained from patient with acute Q fever infected in african green monkey Vero cells after 24 hrs by shell vial assay; assay type: functional; settings: isolate CP1, 24 h
Coxiella burnetii [2] = assay: Antimicrobial activity against compound-susceptible Coxiella burnetii isolate CP6 obtained from patient with acute Q fever infected in african green monkey Vero cells after 24 hrs by shell vial assay; assay type: functional; settings: isolate CP6, 24 h
Coxiella burnetii [3] = assay: Antimicrobial activity against compound-intermediate susceptible Coxiella burnetii Q212 obtained from patient with acute Q fever infected in african green monkey Vero cells after 24 hrs by shell vial assay; assay type: functional; settings: Q212, 24 h
Coxiella burnetii [4] = assay: Antimicrobial activity against compound-susceptible Coxiella burnetii isolate CP3 obtained from patient with acute Q fever infected in african green monkey Vero cells after 24 hrs by shell vial assay; assay type: functional; settings: isolate CP3, 24 h
Coxiella burnetii [5] = assay: Antimicrobial activity against compound-susceptible Coxiella burnetii isolate CP5 obtained from patient with acute Q fever infected in african green monkey Vero cells after 24 hrs by shell vial assay; assay type: functional; settings: isolate CP5, 24 h
Coxiella burnetii [6] = assay: Antimicrobial activity against compound-susceptible Coxiella burnetii isolate CP8 obtained from patient with acute Q fever infected in african green monkey Vero cells after 24 hrs by shell vial assay; assay type: functional; settings: isolate CP8, 24 h
Coxiella burnetii [7] = assay: Antimicrobial activity against compound-susceptible Coxiella burnetii isolate CP2 obtained from patient with acute Q fever infected in african green monkey Vero cells after 24 hrs by shell vial assay; assay type: functional; settings: isolate CP2, 24 h
Coxiella burnetii [8] = assay: Antimicrobial activity against compound-susceptible Coxiella burnetii isolate CP7 obtained from patient with acute Q fever infected in african green monkey Vero cells after 24 hrs by shell vial assay; assay type: functional; settings: isolate CP7, 24 h
Coxiella burnetii [9] = assay: Antimicrobial activity against compound-susceptible Coxiella burnetii Nine-Mile obtained from patient with acute Q fever infected in african green monkey Vero cells after 24 hrs by shell vial assay; assay type: functional
Coxiella burnetii [10] = assay: Antimicrobial activity against compound-susceptible Coxiella burnetii isolate CP1 obtained from patient with acute Q fever infected in african green monkey Vero cells after 24 hrs by shell vial assay; assay type: functional; settings: isolate CP1, 24 h
Coxiella burnetii [11] = assay: Antimicrobial activity against compound-susceptible Coxiella burnetii Q212 obtained from patient with acute Q fever infected in african green monkey Vero cells after 24 hrs by shell vial assay; assay type: functional; settings: Q212, 24 h
Vero = assay: Cytotoxicity against african green monkey Vero cells at 4 ug/ml; assay type: cell-based; settings: chlorocebus sabaeus
Coxiella burnetii [12] = assay: Antimicrobial activity against compound-susceptible Coxiella burnetii isolate CP4 obtained from patient with acute Q fever infected in african green monkey Vero cells after 24 hrs by shell vial assay; assay type: functional; settings: isolate CP4, 24 h
Coxiella burnetii [13] = assay: Antimicrobial activity against compound-intermediate susceptible Coxiella burnetii isolate CP4 obtained from patient with acute Q fever infected in african green monkey Vero cells after 24 hrs by shell vial assay; assay type: functional; settings: isolate CP4, 24 h

Row | Compound | MIC (Coxiella burnetii [1]) [µg/mL] | MIC (Coxiella burnetii [2]) [µg/mL] | MIC (Coxiella burnetii [3]) [µg/mL] | MIC (Coxiella burnetii [4]) [µg/mL] | MIC (Coxiella burnetii [5]) [µg/mL] | MIC (Coxiella burnetii [6]) [µg/mL] | MIC (Coxiella burnetii [7]) [µg/mL] | MIC (Coxiella burnetii [8]) [µg/mL] | MIC (Coxiella burnetii [9]) [µg/mL] | MIC (Coxiella burnetii [10]) [µg/mL] | MIC (Coxiella burnetii [11]) [µg/mL] | Activity (Vero) | MIC (Coxiella burnetii [12]) [µg/mL] | MIC (Coxiella burnetii [13]) [µg/mL]
1 | CN(C)c1cc(NC(=O)CNC(C)(C)C)c(O)c2c1C[C@H]1C[C@H]3[C@H](N(C)C)C(O)=C(C(N)=O)C(=O)[C@@]3(O)C(O)=C1C2=O [TIGECYCLINE] | 0.25 (≈ 0.427 µM) | 0.25 (≈ 0.427 µM) | 0.25 (≈ 0.427 µM) | 0.25 (≈ 0.427 µM) | 0.25 (≈ 0.427 µM) | 0.25 (≈ 0.427 µM) | 0.25 (≈ 0.427 µM) | 0.25 (≈ 0.427 µM) | 0.25 (≈ 0.427 µM) | 0.5 (≈ 0.854 µM) | 0.5 (≈ 0.854 µM) | Non-toxic | 0.25 (≈ 0.427 µM) | 
2 | O=C(O)c1cn(C2CC2)c2cc(N3CCNCC3)c(F)cc2c1=O [CIPROFLOXACIN] | 4 (≈ 12.1 µM) | 4 (≈ 12.1 µM) | 4 (≈ 12.1 µM) | 4 (≈ 12.1 µM) | 4 (≈ 12.1 µM) | 4 (≈ 12.1 µM) | 4 (≈ 12.1 µM) | 4 (≈ 12.1 µM) | 4 (≈ 12.1 µM) |  |  |  | 4 (≈ 12.1 µM) | 
3 | CC(=O)NC[C@H]1CN(c2ccc(N3CCOCC3)c(F)c2)C(=O)O1 [LINEZOLID] | 2 (≈ 5.93 µM) | 2 (≈ 5.93 µM) | 2 (≈ 5.93 µM) | 2 (≈ 5.93 µM) | 2 (≈ 5.93 µM) | 2 (≈ 5.93 µM) | 2 (≈ 5.93 µM) | 2 (≈ 5.93 µM) | 2 (≈ 5.93 µM) | 4 (≈ 11.9 µM) | 4 (≈ 11.9 µM) |  | 2 (≈ 5.93 µM) | 
4 | C[C@H]1c2cccc(O)c2C(=O)C2=C(O)[C@]3(O)C(=O)C(C(N)=O)=C(O)[C@@H](N(C)C)[C@@H]3[C@@H](O)[C@@H]21.O [DOXYCYCLINE] | 1 | 1 | 1 | 1 | 1 | 1 | 1 | 1 | 1 | 2 | 2 |  | 2 | 1
5 | N[C@@H]1[C@H]2CN(c3nc4c(cc3F)c(=O)c(C(=O)O)cn4-c3ccc(F)cc3F)C[C@@H]12 [TROVAFLOXACIN] | 1 (≈ 2.4 µM) | 1 (≈ 2.4 µM) | 1 (≈ 2.4 µM) | 1 (≈ 2.4 µM) | 1 (≈ 2.4 µM) | 1 (≈ 2.4 µM) | 1 (≈ 2.4 µM) | 1 (≈ 2.4 µM) | 1 (≈ 2.4 µM) | 2 (≈ 4.8 µM) | 2 (≈ 4.8 µM) |  | 1 (≈ 2.4 µM) | 
6 | CC[C@H]1OC(=O)[C@H](C)[C@@H](O[C@H]2C[C@@](C)(OC)[C@@H](O)[C@H](C)O2)[C@H](C)[C@@H](O[C@@H]2O[C@H](C)C[C@H](N(C)C)[C@H]2O)[C@](C)(OC)C[C@@H](C)C(=O)[C@H](C)[C@@H](O)[C@]1(C)O [CLARITHROMYCIN] | 2 (≈ 2.67 µM) | 2 (≈ 2.67 µM) | 2 (≈ 2.67 µM) | 2 (≈ 2.67 µM) | 2 (≈ 2.67 µM) | 2 (≈ 2.67 µM) | 2 (≈ 2.67 µM) | 2 (≈ 2.67 µM) | 2 (≈ 2.67 µM) | 4 (≈ 5.35 µM) | 4 (≈ 5.35 µM) |  | 2 (≈ 2.67 µM) | 
7 | CC1COc2c(N3CCN(C)CC3)c(F)cc3c(=O)c(C(=O)O)cn1c23 (centres undefined) [OFLOXACIN] | 1 (≈ 2.77 µM) | 1 (≈ 2.77 µM) | 1 (≈ 2.77 µM) | 1 (≈ 2.77 µM) | 1 (≈ 2.77 µM) | 1 (≈ 2.77 µM) | 1 (≈ 2.77 µM) | 1 (≈ 2.77 µM) | 1 (≈ 2.77 µM) | 2 (≈ 5.53 µM) | 2 (≈ 5.53 µM) |  | 1 (≈ 2.77 µM) | 
